Where “and” joins values, the source holds several entries; their conditions need not be identical. Equal values may be shown once. Read-outs that look alike come from different tables or passages of the source.
Legend:
[1] = target: T1, rat adrenergic α1B receptor (Rattus norvegicus, UniProt P15823); test: Radioligand binding, adrenergic α1B ([3H]Prazosin); settings: for Percentage inhibition of ligand binding, Adrenergic α1B: 0.1 µM
T1 construct: rat adrenergic α1B receptor obtained from Wistar Rat liver; from tissue; host or cells: Wistar rat liver
T1 sequence (P15823 1-515): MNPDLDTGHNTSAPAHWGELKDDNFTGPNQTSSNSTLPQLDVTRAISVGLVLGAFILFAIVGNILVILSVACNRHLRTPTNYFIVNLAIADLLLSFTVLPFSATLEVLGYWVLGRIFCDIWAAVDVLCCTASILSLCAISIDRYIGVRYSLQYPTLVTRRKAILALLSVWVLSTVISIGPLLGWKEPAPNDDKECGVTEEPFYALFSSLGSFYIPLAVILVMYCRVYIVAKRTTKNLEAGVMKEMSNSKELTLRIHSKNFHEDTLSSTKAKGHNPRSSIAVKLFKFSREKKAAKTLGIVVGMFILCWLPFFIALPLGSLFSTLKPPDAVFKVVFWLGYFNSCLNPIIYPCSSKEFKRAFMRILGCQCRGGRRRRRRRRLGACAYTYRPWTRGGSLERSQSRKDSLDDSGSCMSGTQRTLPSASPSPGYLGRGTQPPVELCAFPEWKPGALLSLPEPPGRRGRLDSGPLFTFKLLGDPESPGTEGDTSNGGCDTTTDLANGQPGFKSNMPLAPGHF
Method in brief: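 Specific binding, taken as total minus that remaining with 10 μM phentolamine, is measured after filtration and counting. Rat liver receptor preparation and 0.25 nM [3H]prazosin are incubated with compound in 50 mM Tris-HCl (pH 7.4, 0.5 mM EDTA) at 25° C for 60 min. Activity is reported as percent inhibition.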

[2] = target: T2, human recombinant adrenergic α2A receptor (Homo sapiens, UniProt P08913); test: Radioligand binding, adrenergic α2A ([3H]MK-912); settings: for Percentage inhibition of ligand binding, Adrenergic α2A: 0.1 µM
T2 construct: expressed in transfected cells; host or cells: insect Sf9 cells
T2 sequence (P08913 1-465): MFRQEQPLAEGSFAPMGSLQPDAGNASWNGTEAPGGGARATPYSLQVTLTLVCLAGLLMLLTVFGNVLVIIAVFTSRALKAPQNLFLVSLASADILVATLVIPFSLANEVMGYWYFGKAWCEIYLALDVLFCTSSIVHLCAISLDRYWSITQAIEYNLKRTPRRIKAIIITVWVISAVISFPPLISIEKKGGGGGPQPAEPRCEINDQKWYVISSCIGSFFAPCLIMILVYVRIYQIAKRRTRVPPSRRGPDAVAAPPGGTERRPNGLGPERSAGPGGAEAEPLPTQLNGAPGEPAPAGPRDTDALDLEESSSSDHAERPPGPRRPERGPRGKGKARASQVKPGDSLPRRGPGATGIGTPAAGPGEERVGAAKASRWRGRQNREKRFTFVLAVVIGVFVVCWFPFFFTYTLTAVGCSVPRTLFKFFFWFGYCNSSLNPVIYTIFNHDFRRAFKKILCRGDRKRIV
Method in brief: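 Receptor expressed in Sf9 cells, in 50 mM Tris-HCl pH 7.4, 12.5 mM MgCl2, 2 mM EDTA; compounds incubated with 1 nM [3H]MK-912 for 60 min at 25 °C.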

[3] = target: T3, human recombinant adrenergic α2B receptor (Homo sapiens, UniProt P18089); test: Radioligand binding, adrenergic α2B ([3H]Rauwolscine)
T3 construct: expressed in transfected cells; host or cells: CHO-K1
T3 sequence (P18089 1-450): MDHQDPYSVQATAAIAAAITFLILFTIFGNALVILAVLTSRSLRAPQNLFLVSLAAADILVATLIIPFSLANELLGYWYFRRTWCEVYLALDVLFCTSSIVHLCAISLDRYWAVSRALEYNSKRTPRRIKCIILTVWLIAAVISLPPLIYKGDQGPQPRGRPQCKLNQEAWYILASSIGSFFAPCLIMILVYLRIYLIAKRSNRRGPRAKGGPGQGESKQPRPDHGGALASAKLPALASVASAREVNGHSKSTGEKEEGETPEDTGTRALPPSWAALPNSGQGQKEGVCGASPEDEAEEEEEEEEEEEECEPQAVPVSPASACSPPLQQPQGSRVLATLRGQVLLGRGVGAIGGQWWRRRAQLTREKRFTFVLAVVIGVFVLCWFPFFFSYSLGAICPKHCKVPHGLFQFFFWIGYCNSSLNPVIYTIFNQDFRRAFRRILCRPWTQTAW
Method in brief: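 Membranes from CHO-K1 cells expressing human recombinant α2B, in 50 mM Tris-HCl pH 7.4, 12.5 mM MgCl2, 1 mM EDTA, 0.2% BSA, incubated with compound and 2.5 nM [3H]Rauwolscine, 60 min, 25 °C.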

[4] = target: T4, human recombinant adrenergic α1D receptor (Homo sapiens, UniProt P25100); test: Radioligand binding, adrenergic α1D ([3H]Prazosin); settings: for Percentage inhibition of ligand binding, Adrenergic α1D: 0.1 µM
T4 construct: expressed in transfected cells; host or cells: HEK-293
T4 sequence (P25100 1-572): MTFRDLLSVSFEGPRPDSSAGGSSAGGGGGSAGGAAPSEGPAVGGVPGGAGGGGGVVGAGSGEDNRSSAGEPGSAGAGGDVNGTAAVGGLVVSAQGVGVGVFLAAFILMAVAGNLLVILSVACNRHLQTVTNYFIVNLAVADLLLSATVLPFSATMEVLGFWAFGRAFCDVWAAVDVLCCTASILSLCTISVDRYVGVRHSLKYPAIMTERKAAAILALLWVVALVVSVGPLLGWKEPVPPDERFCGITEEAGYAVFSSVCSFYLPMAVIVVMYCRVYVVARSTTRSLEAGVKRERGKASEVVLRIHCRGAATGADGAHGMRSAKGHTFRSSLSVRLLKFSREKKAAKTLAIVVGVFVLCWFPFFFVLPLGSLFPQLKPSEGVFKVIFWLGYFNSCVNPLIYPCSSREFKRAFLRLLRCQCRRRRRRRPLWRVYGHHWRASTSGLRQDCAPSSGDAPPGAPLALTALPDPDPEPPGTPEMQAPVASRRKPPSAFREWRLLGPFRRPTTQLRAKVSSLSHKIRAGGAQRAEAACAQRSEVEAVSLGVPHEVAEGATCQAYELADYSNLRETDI
Procedure: Compounds were incubated with 0.6 nM [3H]Prazosin for 60 min at 25° C. Non-specific binding was estimated in the presence of 10 μM phentolamine. Receptor proteins were filtered and washed, the filters were then counted to determine [3H]Prazosin specifically bound. […] Biochemical assay results are presented as the percent inhibition of specific binding in Table B1.

[5] = 0.1 μM compound, read-out: Percentage inhibition of ligand binding, Adrenergic α1B
[6] = 0.1 μM compound, read-out: Percentage inhibition of ligand binding, Adrenergic α2A
[7] = 0.1 μM compound, read-out: Percentage inhibition of ligand binding, Adrenergic α2B
[8] = 0.1 μM compound, read-out: Percentage inhibition of ligand binding, Adrenergic α1D
[9] = read-out: Percentage inhibition of ligand binding, Adrenergic α1B (0.1 μM), compound at 0.1 μM, [3H]Prazosin, repeat datapoints each shown
[10] = read-out: Percentage inhibition of ligand binding, Adrenergic α2A (0.1 μM), compound at 0.1 μM, [3H]MK-912, repeat datapoints each shown
[11] = read-out: Percentage inhibition of ligand binding, Adrenergic α2B (0.1 μM), compound at 0.1 μM, [3H]Rauwolscine, repeat datapoints each shown
[12] = read-out: Percentage inhibition of ligand binding, Adrenergic α1D (0.1 μM), compound at 0.1 μM, [3H]Prazosin, repeat datapoints each shown

Row | Structure (SMILES) | inhibition at 0.1 µM [1, 5] | inhibition at 0.1 µM [2, 6] | inhibition at 0.1 µM [3, 7] | inhibition at 0.1 µM [4, 8] | inhibition at 0.1 µM [1, 9] | inhibition at 0.1 µM [2, 10] | inhibition at 0.1 µM [3, 11] | inhibition at 0.1 µM [4, 12] | further results
1 | CC(Cn1c2c(c3ccccc31)CN(C)CC2)c1ccc(F)cc1 (single isomer, unassigned) [272a] | 27% |  |  |  |  |  |  |  | Percentage inhibition of ligand binding, Adrenergic α2A ([2]; 0.1 μM compound): 33%; Percentage inhibition of ligand binding, Adrenergic α2B ([3]; 0.1 μM compound): −10%; Percentage inhibition of ligand binding, Adrenergic α1D ([4]; 0.1 μM compound): 12%
2 | Cc1ccc2c(c1)c1c(n2CC(C)c2ccc(C)nc2)CCN(C)C1 (single isomer, unassigned) [289b] |  |  |  |  |  |  |  |  | Percentage inhibition of ligand binding, Adrenergic α1B ([1]; 0.1 μM compound): 12%; Percentage inhibition of ligand binding, Adrenergic α2A ([2]; 0.1 μM compound): 53%; Percentage inhibition of ligand binding, Adrenergic α2B ([3]; 0.1 μM compound): 54%; Percentage inhibition of ligand binding, Adrenergic α1D ([4]; 0.1 μM compound): −2%
3 | COc1ccc(C(C)(O)Cn2c3c(c4cc(C)ccc42)CN(C)CC3)cc1 (stereo not shown) [254a] | 75% | 58% | 85% | 36% |  |  |  |  | 
4 | COc1ccc(C(C)(O)Cn2c3c(c4cc(C)ccc42)CN(C)CC3)cc1 (stereo not shown) [254b] |  |  |  |  |  |  |  |  | Percentage inhibition of ligand binding, Adrenergic α1B ([1]; 0.1 μM compound): 63%; Percentage inhibition of ligand binding, Adrenergic α2A ([2]; 0.1 μM compound): 57%; Percentage inhibition of ligand binding, Adrenergic α2B ([3]; 0.1 μM compound, 0.1 µM): 79%; Percentage inhibition of ligand binding, Adrenergic α1D ([4]; 0.1 μM compound): 22%
5 | Cc1ccc(CCn2c3c(c4c(C)ccc(C)c42)CN(C)CC3)cn1 [II-18] | -7% | 14% | -15% | -9% |  |  |  |  | 
6 | Cc1cc(Br)c2c(c1)c1c(n2CCc2ccc(C)nc2)CCN(C)C1 [II-39] | 16% | 27% | -14% | 13% |  |  |  |  | 
7 | CN1CCc2c(n(CC(O)c3ccccc3F)c3ccc(Cl)cc23)C1 (stereo not shown) [II-48] | 27% | 26% | 0% | 8% |  |  |  |  | 
8 | Cc1ccc(C(C)(O)Cn2c3c(c4cc(Cl)ccc42)CN(C)CC3)cc1 (stereo not shown) [II-56] | 54% | 31% | 78% | 11% |  |  |  |  | 
9 | CCc1ccc(/C(C)=C/n2c3c(c4cc(C)ccc42)CN(C)CC3)cn1 [II-77] | 54% | 43% | 108% | 66% |  |  |  |  | 
10 | Cc1ccc2c(c1)c1c(n2C2=C(c3ccc(C)nc3)CCC2)CCN(C)C1 [II-82, 2,8-dimethyl-5-(2-(6-methylpyridin-3-yl)cyclopent-1-enyl)-2,3,4,5-tetrahydro-1H-pyrido[4,3-b]indole] | 13% | 45% | 48% | 23% |  |  |  |  | inhibition at 0.03 µM ([3]; 0.03 μM compound, read-out: Percentage inhibition of ligand binding, Adrenergic α2B): 35%; Percentage inhibition of ligand binding, Adrenergic α2B ([3]; 0.1 μM compound, 0.1 µM): 53%; Ki ([3]; read-out: Ki α2B): 26.8 nM
11 | C/C(=C\n1c2c(c3cc(C)ccc31)CN(C)CC2)c1ccc(F)nc1 [II-96] | 39% | 49% | 95% | 31% |  |  |  |  | 
12 | CN1CCc2c(c3cccnc3n2CCc2ccc(C(F)(F)F)nc2)C1 [II-103, 6-methyl-9-(2-(6-(trifluoromethyl)pyridin-3-yl)ethyl)-6,7,8,9-tetrahydro-5H-pyrrolo[2,3-b:4,5-c′]dipyridine] | 1% | -5% | 35% | 8% |  |  |  |  | 
13 | Cc1cnc2c(c1)c1c(n2CCc2ccc(C(F)(F)F)nc2)CCN(C)C1 [II-119, 3,6-dimethyl-9-(2-(6-(trifluoromethyl)pyridin-3-yl)ethyl)-6,7,8,9-tetrahydro-5H-pyrrolo[2,3-b:4,5-c′]dipyridine] |  |  |  |  | 23% | -4% | 27% | 53% | 
14 | CCC1c2c(c3cc(Cl)ccc3n2CC(C)(O)c2ccc(F)cc2)CCN1C (stereo not shown) [II-161] |  |  |  |  | 7% | 7% | 13% | 2% | 
15 | COc1ccc(C(C)(O)Cn2c3c(c4cc(C)ccc42)CN(C)CC3)cc1F (stereo not shown) [II-163] |  |  |  |  | 66% | 41% | 86% | 28% | 
16 | COc1ccc(C(C)(O)Cn2c3c(c4cc(Cl)ccc42)C2CCC(C3)N2C)cc1F (stereo not shown) [II-164] |  |  |  |  | 12% | 15% | 40% | 0% | 
17 | CN1CCc2c(c3ccccc3n2CC(C)(O)c2ccncc2)C1 (stereo not shown) [II-171] |  |  |  |  | 95% | 96% | 94% | 55% | 
18 | Cc1ccc(CCn2c3c(c4cccnc42)CN2CCCC2C3)cn1 (stereo not shown) [II-234] |  |  |  |  | -8% | 7% | 33% | -1% | 
19 | Cc1cnc2c(c1)c1c(n2CCc2ccc(C)nc2)CC2CCCN2C1 (stereo not shown) [II-235] |  |  |  |  | 58% | 3% | 45% | 28% | 
20 | Cc1ccc2c(c1)c1c(n2CCc2ccccc2)CCN(C)C1 [compound 200] |  |  |  |  | 83% | 92% |  | 69% | inhibition at 0.03 µM ([1]; read-out: Percentage inhibition of ligand binding, Adrenergic α1B (0.03 μM), compound at 0.03 μM, [3H]Prazosin, repeat datapoints each shown): 63%; Ki [2]: 1.63 nM and 3.21 nM; inhibition at 0.03 µM ([2]; read-out: Percentage inhibition of ligand binding, Adrenergic α2A (0.03 μM), compound at 0.03 μM, [3H]MK-912, repeat datapoints each shown): 81%
